Laboratory results: the NIST ThermoML archive (doi:10.1016/j.fluid.2017.03.011)
Numbers after ± are expanded uncertainties.

What was measured:
[1] = an = ratio of the nth substance listed; conditions: 101 kPa, Liquid, a2 = 3; for electrical conductivity: Alternating current cell with electrodes; for speed of sound: Sing-around technique in a fixed-path interferometer; for mass density: Vibrating tube method; for viscosity: Falling or rolling sphere viscometry
[2] = refractive index (Na D-line) (dimensionless); an = ratio of the nth substance listed; conditions: 101 kPa, Liquid, Standard Abbe refractometry, a2 = 3

CCC[N+](CCC)(CCC)Cc1ccccc1.[Cl-] [benzyltripropylammonium chloride] + OCC(O)CO
Conditions | electrical conductivity, [1] [S/m] | mass density, [1] [kg/m3] | refractive index, [2] | speed of sound, [1] [m/s] | viscosity, [1] [mPa·s]
293.15 K | 0.0058 ± 0.0002 | 1133.02 ± 0.87 | 1.5051 ± 0.0008 | 1898.3 ± 2 | –
298.15 K | 0.0085 ± 0.0004 | 1129.97 ± 0.87 | 1.5036 ± 0.0008 | 1868.9 ± 2 | –
303.15 K | 0.0117 ± 0.0005 | 1126.92 ± 0.86 | 1.5026 ± 0.0008 | 1844.9 ± 2 | 1890.5 ± 230
308.15 K | 0.016 ± 0.0007 | 1123.81 ± 0.86 | 1.5011 ± 0.0008 | 1824.4 ± 1.9 | 1179.6 ± 130
313.15 K | 0.022 ± 0.0009 | 1120.62 ± 0.85 | 1.4999 ± 0.0008 | 1806.5 ± 1.9 | 779.8 ± 73
318.15 K | 0.0289 ± 0.0012 | 1117.51 ± 0.84 | 1.4982 ± 0.0008 | 1790.1 ± 1.9 | 519.3 ± 41
323.15 K | 0.0374 ± 0.0015 | 1114.45 ± 0.84 | 1.4966 ± 0.0008 | 1774.7 ± 1.9 | 359.2 ± 24
328.15 K | 0.048 ± 0.0019 | 1111.39 ± 0.83 | 1.4953 ± 0.0008 | 1760.1 ± 1.9 | 251.6 ± 14
333.15 K | 0.0596 ± 0.0024 | 1108.32 ± 0.83 | 1.4936 ± 0.0008 | 1745.9 ± 1.9 | 180.1 ± 8
338.15 K | 0.0741 ± 0.003 | 1105.24 ± 0.82 | 1.4922 ± 0.0008 | 1732.2 ± 1.9 | 131.4 ± 4.5
343.15 K | 0.0894 ± 0.0036 | 1102.17 ± 0.82 | 1.4908 ± 0.0008 | 1719.2 ± 1.9 | 97 ± 2.4

CCC[N+](CCC)(CCC)Cc1ccccc1.[Cl-] [benzyltripropylammonium chloride] + Oc1ccccc1
Conditions | electrical conductivity, [1] [S/m] | mass density, [1] [kg/m3] | refractive index, [2] | speed of sound, [1] [m/s] | viscosity, [1] [mPa·s]
293.15 K | 0.0213 ± 0.0009 | 1060.26 ± 0.96 | 1.5486 ± 0.0008 | 1699.7 ± 2.2 | 638.4 ± 55
298.15 K | 0.0295 ± 0.0012 | 1056.98 ± 0.95 | 1.5471 ± 0.0008 | 1679.8 ± 2.2 | 381.5 ± 27
303.15 K | 0.0397 ± 0.0016 | 1053.73 ± 0.95 | 1.5452 ± 0.0008 | 1661.7 ± 2.1 | 237.1 ± 13
308.15 K | 0.0523 ± 0.0021 | 1050.47 ± 0.94 | 1.5436 ± 0.0008 | 1644.5 ± 2.1 | 156.7 ± 6.3
313.15 K | 0.0669 ± 0.0027 | 1047.19 ± 0.93 | 1.542 ± 0.0008 | 1628 ± 2.1 | 107 ± 3
318.15 K | 0.0838 ± 0.0034 | 1043.91 ± 0.93 | 1.5403 ± 0.0008 | 1611.9 ± 2.1 | 76.8 ± 1.4
323.15 K | 0.0999 ± 0.004 | 1040.64 ± 0.92 | 1.5386 ± 0.0008 | 1596.2 ± 2.1 | 57.6 ± 0.7
328.15 K | 0.118 ± 0.0047 | 1037.37 ± 0.91 | 1.5369 ± 0.0008 | 1580.7 ± 2.1 | 43.1 ± 0.6
333.15 K | 0.138 ± 0.0055 | 1034.12 ± 0.91 | 1.5352 ± 0.0008 | 1565.5 ± 2.1 | 32.6 ± 0.4
338.15 K | 0.162 ± 0.0065 | 1030.87 ± 0.9 | 1.5334 ± 0.0008 | 1550.5 ± 2.1 | 25.8 ± 0.3
343.15 K | 0.183 ± 0.0074 | 1027.64 ± 0.89 | 1.5317 ± 0.0008 | 1536.1 ± 2.1 | 20.4 ± 0.3
